The structures appear in SMILES notation.

One may read the pEC50 as the EC50 on a negative log10 scale, so that one unit is a factor of ten.

The target in this assay is T1, human ferroportin (Homo sapiens, UniProt Q9NP59).
T1 construct: luciferase reporter (read with the Nano-Glo Luciferase Assay System); expressed in transfected cells; host or cells: CHO cells, stably transfected, expression induced with doxycycline
T1 sequence (Q9NP59 1-571): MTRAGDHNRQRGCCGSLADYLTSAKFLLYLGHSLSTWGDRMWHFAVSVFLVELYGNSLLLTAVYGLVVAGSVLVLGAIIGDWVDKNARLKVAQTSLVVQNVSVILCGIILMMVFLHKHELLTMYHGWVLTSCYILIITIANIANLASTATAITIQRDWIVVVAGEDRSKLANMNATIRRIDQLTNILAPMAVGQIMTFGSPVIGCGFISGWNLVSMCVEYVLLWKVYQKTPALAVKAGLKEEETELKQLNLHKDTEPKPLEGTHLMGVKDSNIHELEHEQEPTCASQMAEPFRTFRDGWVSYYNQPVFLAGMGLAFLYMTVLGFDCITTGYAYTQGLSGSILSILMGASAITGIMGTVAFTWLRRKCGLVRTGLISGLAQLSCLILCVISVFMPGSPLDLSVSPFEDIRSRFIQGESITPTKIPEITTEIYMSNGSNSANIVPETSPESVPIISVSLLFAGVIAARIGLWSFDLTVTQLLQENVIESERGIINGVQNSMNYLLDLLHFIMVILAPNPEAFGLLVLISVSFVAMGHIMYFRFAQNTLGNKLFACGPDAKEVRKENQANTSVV
Briefly: Biological in-vitro ferroportin internalization assay (luciferase reporter). The format is cell-based. The note with it: average pEC50; stably-transfected CHO cell line expressing human ferroportin tagged to a luciferase reporter; 6 h incubation with test compound. The procedure, abridged: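 Read-out is Nano-Glo luciferase signal after 6 h compound exposure, with average pEC50 derived. Cells are a stable CHO line carrying luciferase-tagged human ferroportin, pre-loaded 24 h with ferric ammonium citrate and doxycycline-induced for 24 h.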
In general terms: Reporter assays use an easily measured gene product as a stand-in for the process of interest.
Turning to `CC[C@@H](O)COc1ccnc(-c2nc3c(c(N(C)CC(=O)NC(C)(C)C)n2)CCC3)c1` [Compound 393, N-tert-butyl-2-[(2-{4-[(2R)-2-hydroxybutoxy]pyridin-2-yl}-5H,6H,7H-cyclopenta[d]pyrimidin-4-yl)(methyl)amino]acetamide], the pEC50 amounted to 8.1. As for `CC[C@H](O)COc1ccnc(-c2nc3c(c(N(C)CC(=O)NC(C)(C)C)n2)CCC3)c1` [Compound 394, (S)—N-(tert-butyl)-2-((2-(4-(2-hydroxybutoxy)pyridin-2-yl)-6,7-dihydro-5H-cyclopenta[d]pyrimidin-4-yl)(methyl)amino)acetamide], the figure is 8.3.

In turn, `CCC(O)(CC)COc1ccnc(-c2nc3c(c(N(C)CC(=O)NC(C)(C)C)n2)CCC3)c1` [Compound 395, N-tert-butyl-2-({2-[4-(2-ethyl-2-hydroxybutoxy)pyridin-2-yl]-5H,6H,7H-cyclopenta[d]pyrimidin-4-yl}(methyl)amino)acetamide] displayed a pEC50 of 8.4. The pEC50 values of the last two compounds are within 0.2 log units of each other. As for `CN(CC(=O)NC(C)(C)C)c1nc(-c2cc(OCC3(O)CCCCC3)ccn2)nc2c1CCC2` [Compound 396, N-tert-butyl-2-[(2-{4-[(1-hydroxycyclohexyl)methoxy]pyridin-2-yl}-5H,6H,7H-cyclopenta[d]pyrimidin-4-yl)(methyl)amino]acetamide], the figure is 8.5; as for `CN(CC(=O)N[C@@H]1CCC[C@@H]1O)c1nc(-c2cc(OCC(C)(C)O)ccn2)nc2c1CCC2` [Compound 397, 2-({2-[4-(2-hydroxy-2-methylpropoxy)pyridin-2-yl]-5H,6H,7H-cyclopenta[d]pyrimidin-4-yl}(methyl)amino)-N-[(1R,2S)-2-hydroxycyclopentyl]acetamide], 7.6; as for `CN(CC(=O)NC1CC1)c1nc(-c2cc(OCC(C)(C)O)ccn2)nc2c1CCC2` [Compound 398, N-cyclopropyl-2-({2-[4-(2-hydroxy-2-methylpropoxy)pyridin-2-yl]-5H,6H,7H-cyclopenta[d]pyrimidin-4-yl}(methyl)amino)acetamide], 8.1. As for `CN(CC(=O)N1CCOCC1)c1nc(-c2cc(OCC(C)(C)O)ccn2)nc2c1CCC2` [Compound 399, 2-({2-[4-(2-hydroxy-2-methylpropoxy)pyridin-2-yl]-5H,6H,7H-cyclopenta[d]pyrimidin-4-yl}(methyl)amino)-1-(morpholin-4-yl)ethan-1-oneide], the pEC50 is 7.5. Under `CCN(CC)CCOc1ccnc(-c2nc3c(c(N(C)CC(=O)NC(C)(C)C)n2)CCC3)c1` [Compound 400, N-tert-butyl-2-[(2-{4-[2-(diethylamino)ethoxy]pyridin-2-yl}-5H,6H,7H-cyclopenta[d]pyrimidin-4-yl)(methyl)amino]acetamide] stands 8.2. Under `CN(CC(=O)NC(C)(C)C)c1nc(-c2cc(OCCN3CCCC3)ccn2)nc2c1CCC2` [Compound 401, N-tert-butyl-2-[methyl(2-{4-[2-(pyrrolidin-1-yl)ethoxy]pyridin-2-yl}-5H,6H,7H-cyclopenta[d]pyrimidin-4-yl)amino]acetamide] stands 8.3; under `C[C@@H](CN(C)C)Oc1ccnc(-c2nc3c(c(N(C)CC(=O)NC(C)(C)C)n2)CCC3)c1` [Compound 402, N-tert-butyl-2-{[2-(4-{[(2S)-1-(dimethylamino)propan-2-yl]oxy}pyridin-2-yl)-5H,6H,7H-cyclopenta[d]pyrimidin-4-yl](methyl)amino}acetamide], 7.8; under `CN(C)C(=O)COc1ccnc(-c2nc3c(c(N(C)CC(=O)NC(C)(C)C)n2)CCC3)c1` [Compound 403, 2-{[2-(4-{[(tert-butylcarbamoyl)methyl](methyl)amino}-5H,6H,7H-cyclopenta[d]pyrimidin-2-yl)pyridin-4-yl]oxy}-N,N-dimethylacetamide], 7.6. Under `CN(CC(=O)NC(C)(C)C)c1nc(-c2cc(OCC(C)(C)N(C)C)ccn2)nc2c1CCC2` [Compound 404, N-tert-butyl-2-[(2-{4-[2-(dimethylamino)-2-methylpropoxy]pyridin-2-yl}-5H,6H,7H-cyclopenta[d]pyrimidin-4-yl)(methyl)amino]acetamide] stands 8.

In turn, `CN(CC(=O)NC(C)(C)C)c1nc(-c2cc(OCC3(O)CCOCC3)ccn2)nc2c1CCC2` [Compound 405, N-tert-butyl-2-[(2-{4-[(4-hydroxyoxan-4-yl)methoxy]pyridin-2-yl}-5H,6H,7H-cyclopenta[d]pyrimidin-4-yl)(methyl)amino]acetamide] came in with a pEC50 of 8.3.

`C[C@H](CN(C)C)Oc1ccnc(-c2nc3c(c(N(C)CC(=O)NC(C)(C)C)n2)CCC3)c1` [Compound 406, N-tert-butyl-2-{[2-(4-{[(2R)-1-(dimethylamino)propan-2-yl]oxy}pyridin-2-yl)-5H,6H,7H-cyclopenta[d]pyrimidin-4-yl](methyl)amino}acetamide] returned a negative-log EC50 (pEC50) of 7.7. As for `CN(C)CC(C)(C)Oc1ccnc(-c2nc3c(c(N(C)CC(=O)NC(C)(C)C)n2)CCC3)c1` [Compound 407, N-tert-butyl-2-{[2-(4-{[1-(dimethylamino)-2-methylpropan-2-yl]oxy}pyridin-2-yl)-5H,6H,7H-cyclopenta[d]pyrimidin-4-yl](methyl)amino}acetamide], the figure is 6.6; as for `C[C@H](C(=O)NC(C)(C)C)N(C)c1nc(-c2cc(OCCN(C)C)ccn2)nc2c1CCC2` [Compound 408, (2R)—N-tert-butyl-2-[(2-{4-[2-(dimethylamino)ethoxy]pyridin-2-yl}-5H,6H,7H-cyclopenta[d]pyrimidin-4-yl)(methyl)amino]propanamide], 8.5. Under `CC(C)(O)COc1ccnc(-c2nc3c(c(NCC(=O)NC(C)(C)C)n2)CCC3)c1` [Compound 409, N-tert-butyl-2-({2-[4-(2-hydroxy-2-methylpropoxy)pyridin-2-yl]-5H,6H,7H-cyclopenta[d]pyrimidin-4-yl}amino)acetamide] stands 7.6; under `CN(C)CCOc1ccnc(-c2nc3c(c(N(C)CC(=O)Nc4cnn(C5CC5)c4)n2)CCC3)c1` [Compound 410, N-(1-cyclopropyl-1H-pyrazol-4-yl)-2-[(2-{4-[2-(dimethylamino)ethoxy]pyridin-2-yl}-5H,6H,7H-cyclopenta[d]pyrimidin-4-yl)(methyl)amino]acetamide], 7.3. Under `CN(CC(=O)NC(C)(C)C)c1nc(-c2cc(OC[C@H]3CCCN3C)ccn2)nc2c1CCC2` [Compound 411, N-tert-butyl-2-{methyl[2-(4-{[(2R)-1-methylpyrrolidin-2-yl]methoxy}pyridin-2-yl)-5H,6H,7H-cyclopenta[d]pyrimidin-4-yl]amino}acetamide] stands 8.2.

Compound `CN(CC(=O)NC(C)(C)C)c1nc(-c2cc(OC[C@@H]3CCCN3C)ccn2)nc2c1CCC2` [Compound 412, N-tert-butyl-2-{methyl[2-(4-{[(2S)-1-methylpyrrolidin-2-yl]methoxy}pyridin-2-yl)-5H,6H,7H-cyclopenta[d]pyrimidin-4-yl]amino}acetamide] returned a pEC50 of 8.1. Under `CN(C)CCOc1ccnc(-c2nc3c(c(N(C)CC(=O)NC(C)(C)C)n2)C(C)(C)CC3)c1` [Compound 413, N-tert-butyl-2-[(2-{4-[2-(dimethylamino)ethoxy]pyridin-2-yl}-5,5-dimethyl-5H,6H,7H-cyclopenta[d]pyrimidin-4-yl)(methyl)amino]acetamide] stands 8; under `CN(CC(=O)NC(C)(C)C)c1nc(-c2cc(OC[C@@H]3COC(C)(C)O3)ccn2)nc2c1CCC2` [Compound 414, N-tert-butyl-2-{[2-(4-{[(4R)-2,2-dimethyl-1,3-dioxolan-4-yl]methoxy}pyridin-2-yl)-5H,6H,7H-cyclopenta[d]pyrimidin-4-yl](methyl)amino}acetamide], 8.3; under `CN1CC(Oc2ccnc(-c3nc4c(c(N(C)CC(=O)NC(C)(C)C)n3)CCC4)c2)C1` [Compound 416, N-tert-butyl-2-[methyl(2-{4-[(1-methylazetidin-3-yl)oxy]pyridin-2-yl}-5H,6H,7H-cyclopenta[d]pyrimidin-4-yl)amino]acetamide], 8. As for `CN(C)CCOc1ccnc(-c2nc3c(c(N(C)CC(=O)N4CCCC4)n2)CCC3)c1` [Compound 417, 2-[(2-{4-[2-(dimethylamino)ethoxy]pyridin-2-yl}-5H,6H,7H-cyclopenta[d]pyrimidin-4-yl)(methyl)amino]-1-(pyrrolidin-1-yl)ethan-1-one], the figure is 7.1; as for `CN(C)CCOc1ccnc(-c2nc3c(c(N(C)CC(=O)NC4(C(F)(F)F)CC4)n2)CCC3)c1` [Compound 418, 2-[(2-{4-[2-(dimethylamino)ethoxy]pyridin-2-yl}-5H,6H,7H-cyclopenta[d]pyrimidin-4-yl)(methyl)amino]-N-[1-(trifluoromethyl)cyclopropyl]acetamide], 7.5. In the case of `CNCCOc1ccnc(-c2nc3c(c(N(C)CC(=O)NC(C)(C)C)n2)CCC3)c1` [Compound 419, N-tert-butyl-2-[methyl(2-{4-[2-(methylamino)ethoxy]pyridin-2-yl}-5H,6H,7H-cyclopenta[d]pyrimidin-4-yl)amino]acetamide], the pEC50 amounted to 7.6.

The values are drawn from patent publication US11746100B2 (GLOBAL BLOOD THERAPEUTICS, INC., priority 2020, dated 2023).
